Reference: PMC6204372, “An RORγt Oral Inhibitor Modulates IL-17 Responses in Peripheral Blood and Intestinal Mucosa of Crohn's Disease Patients” (Frontiers in Immunology, 2018)

Molecular target: T1, RORγ (RORγt) ligand-binding domain (Homo sapiens, UniProt P51449)
T1 construct: gene RORC
T1 sequence (P51449 265-507 limits assumed): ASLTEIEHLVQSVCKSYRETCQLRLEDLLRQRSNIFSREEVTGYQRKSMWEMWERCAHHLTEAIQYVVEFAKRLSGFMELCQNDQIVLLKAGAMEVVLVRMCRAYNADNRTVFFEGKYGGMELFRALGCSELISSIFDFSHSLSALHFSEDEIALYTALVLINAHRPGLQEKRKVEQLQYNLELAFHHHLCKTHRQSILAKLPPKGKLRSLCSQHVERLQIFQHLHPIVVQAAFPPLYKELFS
Test: Kd for human RORγ LBD (binding method not stated); also RORγ LBD reporter assay IC50 […]

- Kd: 65 nM
Substance: BI119
